From patent publication US11840686B2, “Modulation of prekallikrein (PKK) expression” (Ionis Pharmaceuticals, Inc., priority 2013, dated 2023)
Strand notation (5' to 3'): a small letter for the sugar, then the base; units joined by * are phosphorothioate-linked, units joined directly phosphodiester-linked; [ ] holds rarer units or linkages, { } end groups; capitals alone tell only the bases. e = 2'-O-(2-methoxyethyl) (MOE); [5mC] = 5-methylcytosine; d = 2'-deoxy (DNA)

Columns and labels:
human PKK mRNA [1] = experiment: Antisense inhibition of human PKK mRNA in HepaRG cells, 3,000 nM (Example 1); type: cell-based; conditions: relative to untreated control cells
How it was run: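 Values give percent PKK mRNA reduction relative to untreated controls, normalised to RIBOGREEN total RNA. mRNA was quantified by real-time PCR (RTS3454) about 24 h after electroporation. Each 20-mer MOE gapmer was delivered at 3,000 nM into 20,000 HepaRG cells per well.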

human PKK mRNA [2] = experiment: Dose-dependent antisense inhibition of human PKK in HepaRG cells, 0.12-10.00 uM (Example 4); type: cell-based; conditions: electroporation, ~16 h
Experimental: Cells were plated at a density of 20,000 cells per well and transfected using electroporation with 0.12 μM, 0.37 μM, 1.11 μM, 3.33 μM, and 10.00 μM concentrations of antisense oligonucleotide. After a treatment period of approximately 16 hours, RNA was isolated from the cells and PKK mRNA levels were measured by quantitative real-time PCR. Human PKK primer probe set RTS3454 was used to measure mRNA levels. PKK mRNA levels were adjusted according to total RNA content, as measured by RIBOGREEN®. The antisense oligonucleotides were tested in a series of experiments that had similar culture conditions. Results are presented as percent inhibition of PKK, relative to untreated control cells.
The half maximal inhibitory concentration (IC50) of each oligonucleotide is also presented.

[3] = Table 1, PKK mRNA, HepaRG cells, 3,000 nM, electroporation, ~24 h
[4] = Table 4, HepaRG cells, electroporation with 3,000 nM antisense oligonucleotide, approx. 24 hours, PKK mRNA by RT-PCR (RTS3454)
[5] = Table 2, PKK mRNA, HepaRG cells, 3,000 nM, electroporation, ~24 h
[6] = Table 3, HepaRG cells, electroporation with 3,000 nM antisense oligonucleotide, approx. 24 hours, PKK mRNA by RT-PCR (RTS3454)

Row | Substance | % inhibition (human PKK mRNA [1]; [3]) [%] | percent inhibition of PKK at 0.12 μM (human PKK mRNA [2]; Table 32, 0.12 μM) [%] | percent inhibition of PKK at 0.37 μM (human PKK mRNA [2]; Table 32, 0.37 μM) [%] | percent inhibition of PKK at 1.11 μM (human PKK mRNA [2]; Table 32, 1.11 μM) [%] | percent inhibition of PKK at 3.33 μM (human PKK mRNA [2]; Table 32, 3.33 μM) [%] | percent inhibition of PKK at 10.00 μM (human PKK mRNA [2]; Table 32, 10.00 μM) [%] | IC50 (human PKK mRNA [2]; Table 32, PKK mRNA) [nM] | % inhibition (human PKK mRNA [1]; [4]) [%] | percent inhibition of PKK at 0.12 μM (human PKK mRNA [2]; Table 33, 0.12 μM) [%] | percent inhibition of PKK at 0.37 μM (human PKK mRNA [2]; Table 33, 0.37 μM) [%] | percent inhibition of PKK at 1.11 μM (human PKK mRNA [2]; Table 33, 1.11 μM) [%] | percent inhibition of PKK at 3.33 μM (human PKK mRNA [2]; Table 33, 3.33 μM) [%] | percent inhibition of PKK at 10.00 μM (human PKK mRNA [2]; Table 33, 10.00 μM) [%] | IC50 (human PKK mRNA [2]; Table 33, PKK mRNA) [nM] | % inhibition (human PKK mRNA [1]; [5]) [%] | % inhibition (human PKK mRNA [1]; [6]) [%]
1 | 530933 (antisense eT*eG*eG*eA*eG*dG*dT*dG*dA*dG*dT*d[5mC]*dT*d[5mC]*dT*eT*eG*eT*e[5mC]*eA) [compound 530933] | 76 | 15 | 13 | 42 | 67 | 66 | 1700 |  |  |  |  |  |  |  |  | 
2 | 530970 (antisense eT*eT*eG*eG*eT*dG*dT*dG*d[5mC]*d[5mC]*dA*d[5mC]*dT*dT*dT*e[5mC]*eA*eG*eA*eT) [compound 530970] | 74 | 1 | 0 | 66 | 76 | 84 | 1000 |  |  |  |  |  |  |  |  | 
3 | 531235 (eT*e[5mC]*eA*e[5mC]*eT*dG*dT*dA*d[5mC]*dT*dA*dG*dT*dT*dT*e[5mC]*e[5mC]*eT*eA*eT; antisense) [compound 531235] |  |  |  |  |  |  |  | 86 | 27 | 55 | 62 | 84 | 95 | 400 |  | 
4 | 531071 (e[5mC]*eT*eG*e[5mC]*eT*d[5mC]*dT*dG*dT*dG*dT*dT*dT*dT*d[5mC]*eT*e[5mC]*eT*eA*eA; antisense) [compound 531071] |  |  |  |  |  |  |  |  | 23 | 37 | 56 | 83 | 83 | 700 | 73 | 
5 | 531110 (antisense eG*e[5mC]*e[5mC]*eT*eG*dT*dT*dT*dG*dG*dT*dG*dG*dT*d[5mC]*eT*e[5mC]*eT*eT*e[5mC]) [compound 531110] |  |  |  |  |  |  |  |  | 14 | 29 | 49 | 76 | 85 | 1100 |  | 86
6 | 531123 (antisense eT*e[5mC]*e[5mC]*e[5mC]*eA*dG*d[5mC]*dT*d[5mC]*d[5mC]*dA*dG*dT*d[5mC]*dA*e[5mC]*e[5mC]*eA*e[5mC]*e[5mC]) [compound 531123] |  |  |  |  |  |  |  |  | 14 | 43 | 51 | 71 | 64 | 900 |  | 74
7 | 531069 (e[5mC]*e[5mC]*eA*eG*eT*d[5mC]*d[5mC]*dA*dT*dG*dT*dA*d[5mC]*dT*d[5mC]*eA*eG*e[5mC]*eG*eA; antisense) [compound 531069] |  |  |  |  |  |  |  |  | 19 | 39 | 48 | 76 | 83 | 900 | 56 | 
8 | 531078 (eA*eG*e[5mC]*eA*eG*d[5mC]*dT*d[5mC]*dT*dG*dA*dG*dT*dG*d[5mC]*eA*e[5mC]*eT*eG*eT; antisense) [compound 531078] |  | 10 | 27 | 54 | 69 | 92 | 1100 |  |  |  |  |  |  |  | 77 | 
9 | 531233 (eA*e[5mC]*eT*eG*eT*dA*d[5mC]*dT*dA*dG*dT*dT*dT*d[5mC]*d[5mC]*eT*eA*eT*eA*eA; antisense) [compound 531233] |  |  |  |  |  |  |  | 86 | 17 | 27 | 50 | 77 | 84 | 1000 |  | 
10 | 531005 (e[5mC]*eT*e[5mC]*eA*eA*dA*dG*dA*dG*dT*dA*dA*d[5mC]*d[5mC]*dA*eG*eA*eG*e[5mC]*eT; antisense) [compound 531005] | 76 | 14 | 28 | 61 | 73 | 77 | 900 |  |  |  |  |  |  |  |  | 
